Structures are written as SMILES. Where two headings read alike, the source gives them in different places.

One test addresses T1, androgen receptors (Rattus norvegicus, UniProt P15207).
T1 construct: from tissue; host or cells: rat ventral prostate cytosol, inferred from the cited method
T1 sequence (P15207 1-902): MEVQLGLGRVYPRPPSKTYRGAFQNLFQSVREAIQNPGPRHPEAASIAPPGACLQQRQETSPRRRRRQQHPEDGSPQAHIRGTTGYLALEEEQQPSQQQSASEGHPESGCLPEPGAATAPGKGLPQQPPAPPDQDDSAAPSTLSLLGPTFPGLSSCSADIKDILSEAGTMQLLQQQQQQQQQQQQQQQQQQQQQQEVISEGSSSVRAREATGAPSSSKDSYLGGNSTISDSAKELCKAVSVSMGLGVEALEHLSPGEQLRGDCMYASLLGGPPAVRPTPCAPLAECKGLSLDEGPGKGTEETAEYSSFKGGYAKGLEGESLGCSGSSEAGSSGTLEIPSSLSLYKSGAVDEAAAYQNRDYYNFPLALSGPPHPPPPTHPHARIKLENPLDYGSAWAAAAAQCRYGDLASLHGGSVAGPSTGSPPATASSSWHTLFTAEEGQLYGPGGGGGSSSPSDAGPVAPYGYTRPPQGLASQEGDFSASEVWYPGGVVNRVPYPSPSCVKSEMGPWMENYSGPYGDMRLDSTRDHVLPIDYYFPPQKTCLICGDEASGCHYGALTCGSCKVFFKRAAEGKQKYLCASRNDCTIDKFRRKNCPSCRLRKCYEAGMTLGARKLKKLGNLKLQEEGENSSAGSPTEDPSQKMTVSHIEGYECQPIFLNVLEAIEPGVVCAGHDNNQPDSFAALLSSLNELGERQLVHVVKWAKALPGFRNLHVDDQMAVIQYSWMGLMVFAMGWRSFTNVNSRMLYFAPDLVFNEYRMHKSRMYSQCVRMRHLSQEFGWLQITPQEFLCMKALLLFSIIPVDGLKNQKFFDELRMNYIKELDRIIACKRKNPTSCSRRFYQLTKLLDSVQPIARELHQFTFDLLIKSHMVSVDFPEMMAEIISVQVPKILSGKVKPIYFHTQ
The test can be described thus: IC50 of the compounds for their effect on the androgen receptors. The conditions noted are these: for affinity for the androgen receptor (in words): summary in words of the table of Example 1. It counts as binding. How it is done:
(§1) The IC50 corresponds to the concentration which decreases by 50% either an induced pharmacological mechanism, such as muscular contraction,or the attachment of a molecule to its membrane receptor.
In order to determine the IC50 of the compounds for their effect on the androgen receptors, they were tested according to the method of Schilling and Liao ("The Prostate", 1984, 5, 581-588).
(§2) The values are given in μM

In another test the test system is potassium channels. The test can be described thus: IC50 of the compounds for their effect on the potassium channels. It counts as biochemical. Particulars: for IC50: methods of Newgreen et al., Bray et al. and wickerden et al., concentration which decreases by 50% an induced pharmacological mechanism such as muscular contraction, read-out: IC50 K+ Channels; for opening effect for potassium channels (in words): summary in words of the table of Example 1. On the procedure:
as §1
In order to determine the IC50 of the compounds for their effect on the potassium channels, they were tested according to the methods of Newgreen et al. (Br. J. Pharmacol., 1990, 100, 605-613), Bray et al. (Arch. Pharmacol., 1991, 344, 351-359) and wickerden et al. (Br. J. Pharmacol., 1991, 103, 1148-1152).
as §2

The mark [1] stands for this setting: method of Schilling and Liao, concentration which decreases by 50% the attachment of a molecule to its receptor, read-out: IC50 Androgen receptors.

Regarding `CC(O)(C(=O)Nc1ccc(C#N)c(C(F)(F)F)c1)C(F)(F)F` (stereo not shown) [A, N-(4-cyano-3-(trifluoromethyl)phenyl)-3,3,3-trifluoro-2-hydroxy-2-methylpropionamide], on androgen receptors, half-maximal inhibition (IC50) was put at 1 µM and the “affinity for the androgen receptor (in words)” value (“affinity” for short) is reported as “good affinity”. In addition, in the test with potassium channels, the IC50 came to 0.5 µM and the “opening effect for potassium channels (in words)” value (shortened to “opening effect”) was “excellent opening effect”.

As for `CC(O)(C(=O)Nc1ccc(C#N)c(Cl)c1)C(F)(F)F` (stereo not shown) [B, N-(3-chloro-4-cyanophenyl)-3,3,3-trifluoro-2-hydroxy-2-methylpropionamide], on androgen receptors, the IC50 turned out to be 0.5 µM and the “affinity” value was “good affinity”. Also, in the test on potassium channels, the IC50 is 0.1 µM and the “opening effect” value was “excellent opening effect”.

In the case of `CC(O)(C(=O)Nc1ccc(Cl)c(Cl)c1)C(F)(F)F` (stereo not shown) [C, N-(3,4-dichlorophenyl)-3,3,3-trifluoro-2-hydroxy-2-methylpropionamide], the IC50 at androgen receptors (setting [1]) was determined as 1 µM; with potassium channels, 2 µM. Besides, the “affinity” value on androgen receptors is “good affinity”. For the same compound, in the test on potassium channels, the “opening effect” value is “excellent opening effect”.

Turning to `CC(O)(C(=O)Nc1ccc(C#N)c(C(F)(F)F)c1)c1ccccc1` (stereo not shown) [D, N-(4-cyano-3-(trifluoromethyl)phenyl)-2-hydroxy-2-phenylpropionamide], on androgen receptors, the IC50 turned out to be 3 µM and the “affinity” value is on record as “good affinity”. Moreover, in the test with potassium channels, the IC50 was determined as 3 µM and the “opening effect” value is given as “excellent opening effect”.

On to `CC(O)(C(=O)Nc1ccc(C#N)c(C#N)c1)C(F)(F)F` (stereo not shown) [E, N-(3,4-dicyanophenyl)-3,3,3-trifluoro-2-hydroxy-2-methylpropionamide], for which, on androgen receptors, the IC50 came to 10 µM and the “affinity” value is reported as “good affinity”. Besides, in the test on potassium channels, the IC50 was determined as 1 µM and the “opening effect” value is listed as “excellent opening effect”.

Regarding `CC(O)(C(=O)Nc1ccc([N+](=O)[O-])c(C(F)(F)F)c1)C(F)(F)F` (stereo not shown) [F, N-(4-nitro-3-(trifluoromethyl)phenyl)-3,3,3-trifluoro-2-hydroxy-2-methylpropionamide, reference compound], at androgen receptors (setting [1]), the IC50 was over 10 µM. The “affinity” value on androgen receptors is recorded as “poor affinity”. In the test with potassium channels, the IC50 is over 10 µM and the “opening effect” value is recorded as “poor opening effect”.

With `CC(O)(C(=O)Nc1ccc(C#N)cc1)C(F)(F)F` (stereo not shown) [G, N-(4-cyanophenyl)-3,3,3-trifluoro-2-hydroxy-2-methylpropionamide, reference compound], the IC50 on androgen receptors (setting [1]) was over 10 µM. Also, on androgen receptors, the “affinity” value is recorded as “poor affinity”. In addition, in the test with potassium channels, the IC50 came out at 10 µM and the “opening effect” value is given as “poor opening effect”.

These data come from patent publication US6291532A, “Use of N-aryl-2-hydroxyalkylamides for stimulating or inducing hair growth and/or arresting hair loss” (L'Oreal, priority 1996, dated 2001).
